{"source": "paper PMC11251039", "about": "“Harnessing cholesterol uptake of malaria parasites for therapeutic applications” (EMBO Molecular Medicine, 2024)", "key": {"[1]": {"tested_on": "human hepatoma cells (Huh7)", "experiment": "Human hepatoma viability assay (CellTiter-Blue)", "type": "cell-based", "conditions": "for Huh7 viability, dose-response data points (Figure 3F): replicate data points, listed as BC5B", "method": "Huh7 hepatoma viability assays were conducted in the same manner as the P. berghei assays, with metabolic capacity (indicating viability) measured with a fluorescence microplate reader after incubation with CellTiter-Blue® (Promega) for 3 h.\nAppendix Fraser/Curtis et al. […]\nHuman Hepatoma Viability Assays:\nThe Huh7 hepatoma cell line (ATCC) was maintained under routine culture conditions in Dulbecco's Modified Eagle Medium (DMEM) containing 3.7 g/L NaHCO3 supplemented with 10% foetal bovine serum (FBS), 100 units/mL penicillin, and 100 μg/mL streptomycin at 37 °C in a humidified 5% CO2 incubator.\nViability assays were performed in parallel to the P. berghei growth inhibition. 10,000 Huh7 cells were seeded in 96-well and dark-sided microplates (Greiner Bio One) and cultured at 37°C, 5% CO2 and 80% humidity. The next day, the media was replaced with compounds or solvent controls (DMSO) serially diluted in culture media. Media was partially replaced with new drug dilutions over the following two days. After 48 hours, CellTiter-Blue® (Promega) was added according to the manufacturer’s instructions and incubated for 3 hours. Fluorescence intensity was measured with 530/25 ex and 590/20 em in a Synergy HTX plate reader (Agilent)."}, "[2]": {"tested_on": "human foreskin fibroblasts (HFF)", "experiment": "Human foreskin fibroblast growth inhibition assay (SYBR Safe)", "type": "cell-based", "conditions": "72 h", "method": "HFF cell growth inhibition assays commenced by adding 5000 cells to each well of a 96-well plate. 10 µg/mL cycloheximide was used as a no-growth control. DNA replication (indicating growth) was measured at the specified time using SYBR Safe DNA Gel Stain (Invitrogen 33102) and a fluorescence microplate reader. […]\nHuman Foreskin Fibroblast Growth Inhibition Assays:\nThe HFF cell line was maintained under routine culture conditions in DMEM containing 3.7 g/L NaHCO3 supplemented with 10% v/v newborn calf serum (NCS), 50 units/mL penicillin, 50 μg/mL streptomycin, 10 μg/mL gentamicin, 0.25 μg/mL amphotericin B, and 0.2 mM L-glutamine at 37 °C in a humidified 5% CO2 incubator. […]\nHFF cells were detached from a flask using 0.25% Trypsin with 0.2 g/L EDTA (Sigma T4049) and washed with culture media. Cells were incubated with a serial dilution of each compound, or media/DMSO alone. Cycloheximide at 10 µg/mL was used as a positive control to determine background fluorescence. Approximately 5 000 cells were seeded in each well. Plates were incubated at 37 °C for 72 hours (until reaching confluency) and the media was removed. Plates were transferred to a -18 °C freezer. Plates were thawed and SYBR Safe DNA Gel Stain (final concentration 1/10,000) diluted in lysis buffer (as above) was added. Fluorescence was read at 490 nm excitation/ 520 nm emission on a FLUOstar Optima fluorescence plate reader. […]"}, "[3]": {"tested_on": "human embryonic kidney cells (HEK293)", "experiment": "Human embryonic kidney cell viability assay (MTT)", "type": "cell-based", "conditions": "Homo sapiens; 96 h, HEK293; read-out: IC50, human embryonic kidney cell inhibition (viability)", "method": "HEK293 cell viability assays commenced with 5000 cells per well. 10 µg/mL cycloheximide was used as a no-growth control. Metabolic capacity (indicating viability) was measured in an absorbance microplate reader after incubation with 0.45 mg/mL methylthiazolyldiphenyl-tetrazolium bromide (MTT; Sigma M2128) for 2 h followed by crystal solubilisation in SDS. […]\nHuman Embryonic Kidney Cell Viability Assays:\nHuman Embryonic Kidney Cell (HEK293) culture:\nThe HEK293 cell line was maintained under routine culture conditions in DMEM containing 3.7 g/L NaHCO3 supplemented with 10% FBS, 200 μM glutamine, 100 units/mL penicillin, and 100 μg/mL streptomycin at 37 °C in a humidified 5% CO2 incubator.\nCells were detached from a flask using 0.25% Trypsin with 0.2 g/L EDTA (Sigma T4049) and washed with culture media containing no phenol red. Cells were incubated with a serial dilution of each compound, or media/DMSO alone. The protein synthesis inhibitor cycloheximide (Sigma 01810) at 10 µg/mL was used as a positive control to determine background absorbance. 5,000 cells were seeded in each well. After 96 hours, 0.45 mg/mL methylthiazolyldiphenyl-tetrazolium bromide (MTT; Sigma M2128) was added and incubated for a further two hours, before mixing 1.1:1 with 10% w/v sodium dodecyl sulfate (SDS) to solubilise crystals and freezing the plate at -18 °C to stop the assay. […]"}, "P. berghei liver stages": {"tested_on": "P. berghei liver stages", "experiment": "Plasmodium berghei liver stage growth inhibition assay (luminescence, in Huh7 cells)", "conditions": "for P. berghei liver stage growth, dose-response data points (Figure 3A): replicate data points; for P. berghei liver stage growth, dose-response data points (Figure 3A) / Figure 3E dose-response value (replicates): listed as BC5B", "quoted_text": "Growth inhibition or cell viability were assessed by incubation with a serial dilution of test compounds, solvent controls (DMSO, ethanol, ethyl acetate), or culture media alone in 96-well plates, with detection of fluorescence, luminescence, or absorbance in microplate readers after 24–96 h unless otherwise specified.\nHuh7 cells were seeded at a density of 10,000 cells per well of a 96-well plate, or 20,000 cells per collagen-coated coverslip. After 24 h, test compounds were added the wells were inoculated with P. berghei liver stage sporozoites dissected from infected A. stephensi salivary glands with 5000–10,000 sporozoites per well or 10,000–20,000 sporozoites per coverslip. Uninfected wells served as a control for background luminescence. Luminescence signal was measured 48 h post-invasion by addition of 1:1 ONE-Glo^TM substrate (Promega) with a luminescence microplate reader. Coverslips were fixed, stained, and imaged, with all parasites on each coverslip imaged and delineated as described (Petersen et al, [2017]) using Fiji ImageJ (Schindelin et al, [2012]). Data are presented as a percentage of the size or parasite number of the solvent control to normalize for differences between experiments.\nGrowth inhibition data were normalised by subtracting background fluorescence, luminescence, absorbance, or percentage of cells from a no-growth or no-viability control (high drug concentration, no-parasite control, or time = 0 measurement as specified), and expressed as a percentage of the growth or cell percentage in the negative control (culture media alone or solvent control) at the indicated timepoint (or to the highest measurement reached during the assay for Fig. EV3).\nPlasmodium berghei ANKA Bergreen (22) or GFP-Luc (RMgm-29) (23), respectively\nexpressing green fluorescent protein (GFP) or a GFP-Luciferase fusion protein, were\nmaintained under routine conditions in SWR/J Mus musculus mice and Anopheles stephensi\nGrowth inhibition of P. berghei liver-stages was investigated after infection of human\nhepatoma cells (Huh7) and subsequent growth for 48 hours at 37° C, 5% CO2 and 80%\nhumidity. The day prior to infection, 10,000 Huh7 cells were seeded in dark-sided 96-well\nmicroplates (Greiner Bio One). On the day of infection, compounds or solvent controls\n(DMSO) were serially diluted in culture media and 5,000 – 10,000 Bergreen or GFP-Luc\nsporozoites were added per well following dissection from infected A. stephensi salivary\nglands. Uninfected wells served as control for background luminescence. To promote invasion,\nthe plates were centrifuged at 1,550 g for 5 minutes. After 60 minutes, the media was\ncompletely replaced with fresh, prewarmed media with the matching drug concentrations.\nMedia was partially replaced with new drug dilutions over the following two days. 48 hours\npost-infection, luminescence signal was measured by addition of 1:1 ONE-GloTM substrate\n(Promega) to the wells, followed by detection at 300 – 700 nm using a Synergy HTX plate"}}, "note": "“And” between values parts separate entries of the source, which are not always exact repeats. Equal entries are not always repeated."}
{"compound": "COc1cc(NC(C)CCCNC(=O)CCC(=O)O[C@H]2CC[C@H]3[C@@H]4CC=C5C[C@@H](O)CC[C@]5(C)[C@H]4CC[C@]23C)c2ncccc2c1", "note": "(stereo partly drawn) [C-17-PQ]", "values": [{"measurement": "Huh7 viability, dose-response data points (Figure 3F)", "setting": "[1]; 0.015241580 uM, 0.0152416 µM", "value": "98.89 and 98.22 and 98.39 and 94.42 and 103 and 100.2 and 102.1 and 98.78"}, {"measurement": "Huh7 viability, dose-response data points (Figure 3F)", "setting": "[1]; 0.045724740 uM, 0.0457247 µM", "value": "96.51 and 98.69 and 94.1 and 96.38 and 90.79 and 82.31 and 84.01 and 89.64"}, {"measurement": "Huh7 viability, dose-response data points (Figure 3F)", "setting": "[1]; 0.137174210 uM, 0.137174 µM", "value": "106.8 and 96.95 and 95.92 and 94.98 and 96.42 and 101.8 and 95.52 and 109.1"}, {"measurement": "Huh7 viability, dose-response data points (Figure 3F)", "setting": "[1]; 0.411522630 uM, 0.411523 µM", "value": "95.23 and 97.59 and 96.23 and 88.28 and 94.64 and 96.4 and 105 and 96.39"}, {"measurement": "Huh7 viability, dose-response data points (Figure 3F)", "setting": "[1]; 1.234567900 uM, 1.23457 µM", "value": "95.71 and 98.77 and 99.42 and 84.3 and 74.81 and 88.03 and 77.15 and 83 and 86.37"}, {"measurement": "Huh7 viability, dose-response data points (Figure 3F)", "setting": "[1]; 3.703703700 uM, 3.7037 µM", "value": "88.28 and 89.97 and 90.65 and 52.83 and 57.73 and 57.82 and 45.17 and 51.57 and 42.91"}, {"measurement": "Huh7 viability, dose-response data points (Figure 3F)", "setting": "[1]; 11.111111100 uM, 11.1111 µM", "value": "75.95 and 74.95 and 78.75 and 46.5 and 49.1 and 49.17 and 39.05 and 40.11 and 38.75"}, {"measurement": "Huh7 viability, dose-response data points (Figure 3F)", "setting": "[1]; 33.333333300 uM, 33.3333 µM", "value": "79.29 and 78.52 and 76.32 and 47.53 and 46.72 and 48.69 and 34.13 and 38.39 and 36.44"}, {"measurement": "Huh7 viability, dose-response data points (Figure 3F)", "setting": "[1]; 100.000000000 uM", "value": "80.41 and 81.45 and 81.11 and 48.76 and 54.16 and 52.59 and 35.21 and 39.74 and 37.9"}, {"measurement": "IC50", "setting": "[1]; Homo sapiens, Huh-7, 48 h, read-out: IC50, human hepatoma inhibition (viability)", "value": "> 50", "unit": "µM"}, {"measurement": "Maximal inhibition of fibroblast growth at the range of concentrations tested", "setting": "[2]; HFF", "value": "≤ 30", "unit": "%"}, {"measurement": "IC50", "setting": "[2]; Homo sapiens, Fibroblast, read-out: IC50, human fibroblast growth inhibition", "value": "> 290", "unit": "µM"}, {"measurement": "IC50", "setting": "[3]", "value": "> 50", "unit": "µM"}, {"measurement": "P. berghei liver stage growth, dose-response data points (Figure 3A)", "setting": "P. berghei liver stages; 0.015241580 uM", "value": "99.66 and 97.59 and 102.8 and 91.81 and 95.85 and 112.3 and 109.1 and 88.24 and 102.7"}, {"measurement": "P. berghei liver stage growth, dose-response data points (Figure 3A)", "setting": "P. berghei liver stages; 0.045724740 uM", "value": "109 and 90.36 and 103.8 and 84.25 and 83.27 and 86.47 and 94.66 and 88.64 and 73.11"}, {"measurement": "P. berghei liver stage growth, dose-response data points (Figure 3A)", "setting": "P. berghei liver stages; 0.137174210 uM", "value": "94.49 and 73.84 and 68.67 and 79.23 and 76.1 and 53.42 and 81.73 and 93.15 and 81.23"}, {"measurement": "Figure 3E dose-response value (replicates)", "setting": "P. berghei liver stages; 0.145312500 uM", "value": "100.6 and 88.31 and 76.37 and 94.25"}, {"measurement": "Figure 3E dose-response value (replicates)", "setting": "P. berghei liver stages; 0.290625000 uM", "value": "94.35 and 94.79 and 85.61 and 89.45 and 87.37 and 88.47 and 84.93 and 94.4 and 94.85 and 93.84 and 89.47 and 91.21"}, {"measurement": "P. berghei liver stage growth, dose-response data points (Figure 3A)", "setting": "P. berghei liver stages; 0.411522630 uM", "value": "13.94 and 18.07 and 25.3 and 9.363 and 14.77 and 12.23 and 25.32 and 28.82 and 21.11"}, {"measurement": "Figure 3E dose-response value (replicates)", "setting": "P. berghei liver stages; 0.581250000 uM", "value": "102.2 and 80.25 and 95.76 and 90.1 and 83.44 and 75.35 and 88.55 and 97.11 and 92.72 and 86.07 and 93.7 and 93.03"}, {"measurement": "Figure 3E dose-response value (replicates)", "setting": "P. berghei liver stages; 1.162500000 uM", "value": "80.19 and 74.87 and 75.85 and 88.24 and 81.26 and 89.14 and 75.39 and 78.14 and 86.59 and 91.1 and 86.79 and 86.51"}, {"measurement": "P. berghei liver stage growth, dose-response data points (Figure 3A)", "setting": "P. berghei liver stages; 1.234567900 uM", "value": "1.549 (2×) and -1.549 and 0.4997 and 0.5648 and 2.455 and 1.57 and 4.175 and 3.674"}, {"measurement": "Figure 3E dose-response value (replicates)", "setting": "P. berghei liver stages; 2.325000000 uM", "value": "53.31 and 45.1 and 53.66 and 84.74 and 82.81 and 85.04 and 49.27 and 57.96 and 49.51 and 76.01 and 76.49 and 71.94"}, {"measurement": "P. berghei liver stage growth, dose-response data points (Figure 3A)", "setting": "P. berghei liver stages; 3.703703700 uM", "value": "-1.549 and -0.5164 and -3.614 and 0.04345 and -0.02173 and 0.1086 and 0.3674 and 0.5678 and 1.47"}, {"measurement": "Figure 3E dose-response value (replicates)", "setting": "P. berghei liver stages; 4.650000000 uM", "value": "7.681 and 6.67 and 6.188 and 47.84 and 67.52 and 65.25 and 8.114 and 8.015 and 9.768 and 28.34 and 27.7 and 22"}, {"measurement": "Figure 3E dose-response value (replicates)", "setting": "P. berghei liver stages; 9.300000000 uM", "value": "1.871 and 0.7826 and 2.182 and 4.713 and 13.07 and 10.27 and 2.653 and 3.064 and 2.474 and 6.135 and 6.853 and 6.628"}, {"measurement": "P. berghei liver stage growth, dose-response data points (Figure 3A)", "setting": "P. berghei liver stages; 11.111111100 uM", "value": "-2.582 (2×) and -3.614 and -0.0869 and 0.1086 and 0.4997 and 0.5678 and 0.4676 and 0.7682"}, {"measurement": "Figure 3E dose-response value (replicates)", "setting": "P. berghei liver stages; 18.600000000 uM", "value": "1.555 and 0.8085 and 1.399 and 1.289 and 0.3453 and 0.9092 and 0.9717 and 1.016 and 1.705 and 1.904 and 2.379 and 2.285"}, {"measurement": "P. berghei liver stage growth, dose-response data points (Figure 3A)", "setting": "P. berghei liver stages; 33.333333300 uM", "value": "-2.582 and -1.549 and -0.5164 and -0.02173 and 0.3041 (2×) and 0.3674 (2×) and 0.9686"}, {"measurement": "Figure 3E dose-response value (replicates)", "setting": "P. berghei liver stages; 37.200000000 uM", "value": "2.576 and 1.923 and 1.736 and -0.9169 and -0.5313 and 0.3203 and 0.31 and 1.213 and 0.6856 and 1.324 and 1.043 and 1.236"}, {"measurement": "P. berghei liver stage growth, dose-response data points (Figure 3A)", "setting": "P. berghei liver stages; 100.000000000 uM", "value": "0.5164 and -1.549 and 1.549 and 0.04345 and 0.4997 and 0.1086 and 0.5678 (2×) and 0.668"}, {"measurement": "Fold reduction in IC50 compared to primaquine alone", "setting": "P. berghei liver stages; 48 h", "value": "~ 15 fold"}, {"measurement": "IC50", "setting": "P. berghei liver stages; Plasmodium berghei, Huh-7, 48 h, read-out: IC50, P. berghei liver stage growth inhibition", "value": 0.2, "unit": "µM"}]}
